{"source": "patent EP4135668B1", "about": "“SOLID ORAL DOSAGE FORM COMPRISING POMALIDOMIDE” (Tecnimede, Sociedade Técnico-Medicinal, SA, priority 2020, dated 2021)", "origin": "cited, not measured here", "conditions": "low aqueous solubility and low permeability active compound", "data": [{"smiles": "Nc1cccc2c1C(=O)N(C1CCC(=O)NC1=O)C2=O", "note": "(stereo not shown) [Pomalidomide, 4-amino-2-(2,6-dioxopiperidine-3-yl)isoindoline-l,3-dione]", "values": [{"measurement": "Biopharmaceutics Classification System (BCS) class", "value": "Class IV"}]}]}
